Data as given in US20230135152A1 (ACURASTEM INCORPORATED, priority 2020, published 2023).

Biological target: PIKFYVE (Homo sapiens, UniProt Q9Y2I7)
Assay: PIKFYVE assay (luciferase ADP-Glo kinase assay, Promega)
Assay type: biochemical
Experimental: The activity of Compounds 1-20 was measured using a PIKFYVE assay (luciferase ADP-Glo kinase assay available from Promega Corp. of Madison, Wis.).
The activity of Compounds 39-90 was also measured using a PIKFYVE assay (luciferase ADP-Glo kinase assay available from Promega Corp. of Madison, Wis.).
The activity of Compounds 93-347 was also measured using a PIKFYVE assay (luciferase ADP-Glo kinase assay available from Promega Corp. of Madison, Wis.).

Sequence of PIKFYVE (Q9Y2I7 whole entry): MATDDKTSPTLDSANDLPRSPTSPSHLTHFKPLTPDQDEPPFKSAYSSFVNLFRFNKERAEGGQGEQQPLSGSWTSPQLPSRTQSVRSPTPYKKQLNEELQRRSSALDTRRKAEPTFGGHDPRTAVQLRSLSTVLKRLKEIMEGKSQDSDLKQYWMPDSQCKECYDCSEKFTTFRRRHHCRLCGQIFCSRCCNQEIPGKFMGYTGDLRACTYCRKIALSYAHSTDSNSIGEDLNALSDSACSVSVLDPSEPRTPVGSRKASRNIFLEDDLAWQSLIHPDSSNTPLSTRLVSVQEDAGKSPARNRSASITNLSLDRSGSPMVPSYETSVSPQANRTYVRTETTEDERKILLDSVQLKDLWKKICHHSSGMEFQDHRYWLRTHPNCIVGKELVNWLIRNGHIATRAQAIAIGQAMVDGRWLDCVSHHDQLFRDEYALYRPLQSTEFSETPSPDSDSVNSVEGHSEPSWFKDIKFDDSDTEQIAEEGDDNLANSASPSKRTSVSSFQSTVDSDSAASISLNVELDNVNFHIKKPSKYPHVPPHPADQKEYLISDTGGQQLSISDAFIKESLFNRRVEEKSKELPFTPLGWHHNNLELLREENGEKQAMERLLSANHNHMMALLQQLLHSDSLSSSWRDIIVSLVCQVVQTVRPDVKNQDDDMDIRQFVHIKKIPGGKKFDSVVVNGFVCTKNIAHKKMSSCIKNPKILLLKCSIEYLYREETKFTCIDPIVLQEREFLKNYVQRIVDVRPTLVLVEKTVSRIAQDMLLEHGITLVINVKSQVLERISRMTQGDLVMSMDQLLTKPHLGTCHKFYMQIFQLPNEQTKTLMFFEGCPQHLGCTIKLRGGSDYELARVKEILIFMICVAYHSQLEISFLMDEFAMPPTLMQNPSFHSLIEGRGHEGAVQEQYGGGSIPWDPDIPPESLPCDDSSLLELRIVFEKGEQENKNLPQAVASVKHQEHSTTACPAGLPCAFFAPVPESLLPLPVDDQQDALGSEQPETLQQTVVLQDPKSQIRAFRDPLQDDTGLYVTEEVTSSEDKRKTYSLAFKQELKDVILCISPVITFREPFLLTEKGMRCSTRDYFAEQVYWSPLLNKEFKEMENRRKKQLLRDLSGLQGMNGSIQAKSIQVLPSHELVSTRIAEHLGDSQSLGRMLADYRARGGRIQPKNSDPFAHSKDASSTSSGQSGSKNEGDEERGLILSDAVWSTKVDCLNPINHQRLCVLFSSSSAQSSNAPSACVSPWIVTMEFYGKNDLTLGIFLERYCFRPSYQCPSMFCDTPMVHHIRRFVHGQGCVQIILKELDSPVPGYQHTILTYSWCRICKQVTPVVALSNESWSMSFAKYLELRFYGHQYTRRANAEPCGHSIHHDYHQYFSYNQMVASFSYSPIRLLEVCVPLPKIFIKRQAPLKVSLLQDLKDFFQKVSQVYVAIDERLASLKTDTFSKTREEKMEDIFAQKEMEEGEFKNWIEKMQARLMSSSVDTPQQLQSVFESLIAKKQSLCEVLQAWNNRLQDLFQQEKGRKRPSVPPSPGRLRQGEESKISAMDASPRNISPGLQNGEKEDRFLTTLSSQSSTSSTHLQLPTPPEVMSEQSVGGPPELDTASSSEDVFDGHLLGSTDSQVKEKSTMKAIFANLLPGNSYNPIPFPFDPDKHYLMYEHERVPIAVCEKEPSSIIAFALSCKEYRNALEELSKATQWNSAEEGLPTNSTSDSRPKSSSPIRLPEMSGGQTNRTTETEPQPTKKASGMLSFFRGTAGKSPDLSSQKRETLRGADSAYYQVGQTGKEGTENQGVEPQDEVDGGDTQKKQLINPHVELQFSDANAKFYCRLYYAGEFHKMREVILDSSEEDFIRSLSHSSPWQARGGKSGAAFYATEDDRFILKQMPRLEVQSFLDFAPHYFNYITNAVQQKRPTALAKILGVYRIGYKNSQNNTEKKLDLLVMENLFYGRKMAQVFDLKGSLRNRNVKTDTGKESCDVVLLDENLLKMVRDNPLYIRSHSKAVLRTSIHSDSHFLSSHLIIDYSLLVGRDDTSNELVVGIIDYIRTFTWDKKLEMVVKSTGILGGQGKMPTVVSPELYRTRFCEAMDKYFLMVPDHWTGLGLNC

Row | SMILES | IC50 (Table 3) [nM] | further results
1 | CN(C)Cc1ccc2nn(-c3cc(N4CCOCC4)nc(OCCc4cnn(C)c4)n3)cc2c1 [Compound 253, N,N-dimethyl-1-(2-(2-(2-(1-methyl-1H-pyrazol-4-yl)ethoxy)-6-morpholinopyrimidin-4-yl)-2H-indazol-5-yl)methanamine] | 10 to 100 | –
2 | Cc1cccc(-c2ccn(-c3cc(N4CCOCC4)nc(N(C)CCc4ccccn4)n3)n2)c1 [Compound 91, N-methyl-4-morpholino-N-(2-(pyridin-2-yl)ethyl)-6-(3-(m-tolyl)-1H-pyrazol-1-yl)pyrimidin-2-amine] | 3 to 10 | –
3 | Cn1cc(CCOc2nc(N3CCOCC3)cc(-n3ccc(-c4cccc5c4OCCN5)n3)n2)cn1 [Compound 244, 8-(1-(2-(2-(1-methyl-1H-pyrazol-4-yl)ethoxy)-6-morpholinopyrimidin-4-yl)-1H-pyrazol-3-yl)-3,4-dihydro-2H-benzo[b][1,4]oxazine] | 10 to 100 | –
4 | OCC(O)COc1nc(N2CCOCC2)cc(-n2cc3ccccc3n2)n1 (stereo not drawn) [Compound 52] | – | IC50 (Table 2): 101 to 1000 nM
5 | Cc1cccc(-c2ccn(-c3cc(N4CCOCC4)nc(OCC4(C)COC4)n3)n2)c1 [Compound 67] | – | IC50 (Table 2): < 5 nM
6 | Cc1cccc(N2CC(C)N(c3cc(N4CCOCC4)nc(OCCc4cnn(C)c4)n3)C2=O)c1 (stereo not drawn) [Compound 246, 4-methyl-3-(2-(2-(1-methyl-1H-pyrazol-4-yl)ethoxy)-6-morpholinopyrimidin-4-yl)-1-(m-tolyl)imidazolidin-2-one] | 100 to 5000 | –
7 | COCCSc1cc(-n2ccc(-c3cccc(C)c3)n2)nc(OCC2CCCO2)n1 (stereo not drawn) [Compound 18, 4-((2-methoxyethyl)thio)-2-((tetrahydrofuran-2-yl)methoxy)-6-(3-(m-tolyl)-1H-pyrazol-1-yl)pyrimidine] | – | IC50 (Table 1): 1000 to 10000 nM
8 | Cc1cccc(-c2ccn(-c3cc(N4CCOCC4)nc(NCCc4ccccn4)n3)n2)c1 [Compound 46, 4-morpholino-N-(2-(pyridin-2-yl)ethyl)-6-(3-(m-tolyl)-1H-pyrazol-1-yl)pyrimidin-2-amine] | – | IC50 (Table 2): 5 to 100 nM
9 | Cc1cccc(CC(=O)N(C)c2nc(OCCc3cnn(C)c3)cc(N3CCOCC3)n2)c1 [Compound 250, N-methyl-N-(4-(2-(1-methyl-1H-pyrazol-4-yl)ethoxy)-6-morpholinopyrimidin-2-yl)-2-(m-tolyl)acetamide] | > 5000 | –
10 | CC(C)(C)c1ccn(-c2cc(N3CCOCC3)nc(OCC(O)CO)n2)n1 (stereo not drawn) [Compound 51] | – | IC50 (Table 2): 1000 to 10000 nM
11 | Cc1cccc(-c2ccn(-c3cc(N4CCOCC4)nc(Cc4ccccc4)n3)n2)c1 [Compound 42] | – | IC50 (Table 2): 101 to 1000 nM
12 | Clc1ccc(-c2ccn(-c3cc(N4CCOCC4)nc(OCCc4ccccn4)n3)n2)cc1 [Compound 40] | – | IC50 (Table 2): 101 to 1000 nM
13 | Cc1cccc(CC(=O)Nc2cc(N3CCOCC3)nc(OCCc3cnn(C)c3)n2)c1 [Compound 249, N-(2-(2-(1-methyl-1H-pyrazol-4-yl)ethoxy)-6-morpholinopyrimidin-4-yl)-2-(m-tolyl)acetamide] | 100 to 5000 | –
14 | CN(C)Cc1cc(-c2ccccc2)nn1-c1cc(N2CCOCC2)nc(OCC2(C)COC2)n1 [Compound 207, N,N-dimethyl-1-(1-(2-((3-methyloxetan-3-yl)methoxy)-6-morpholinopyrimidin-4-yl)-3-phenyl-1H-pyrazol-5-yl)methanamine] | 10 to 100 | –
15 | Cc1cc(-c2ccccc2)nn1-c1nc2c(c(N3CCOCC3)n1)CN(CCc1ccn(C)n1)C2 [Compound 240, 4-(6-(2-(1-methyl-1H-pyrazol-3-yl)ethyl)-2-(5-methyl-3-phenyl-1H-pyrazol-1-yl)-6,7-dihydro-5H-pyrrolo[3,4-d]pyrimidin-4-yl)morpholine] | 100 to 5000 | –

More lines, main results first:

Row | IC50 (Table 3) [nM] | SMILES | further results
16 | 100 to 5000 | CO[C@@H](CO)c1nc(N2CCOCC2)cc(-n2ccc(-c3cccc4c3COC4)n2)n1 [Compound 271, (R)-2-(4-(3-(1,3-dihydroisobenzofuran-4-yl)-1H-pyrazol-1-yl)-6-morpholinopyrimidin-2-yl)-2-methoxyethan-1-ol] | –
17 | 10 to 100 | CO[C@H](CO)c1nc(N2CCOCC2)cc(-n2nc(-c3ccccc3)cc2C2CC2)n1 (single isomer, unassigned) [Compound 256] | –
18 | 100 to 5000 | CO[C@H](CO)c1nc(N2CCOCC2)cc(-n2ccc(-c3cnc4ccccn34)n2)n1 [Compound 282, (S)-2-(4-(3-(imidazo[1,2-a]pyridin-3-yl)-1H-pyrazol-1-yl)-6-morpholinopyrimidin-2-yl)-2-methoxyethan-1-ol] | –
19 | 100 to 5000 | CO[C@@H](CO)c1nc(N2CCOCC2)cc(-n2nc(-c3c[nH]c4cccnc34)cc2C)n1 [Compound 291, (R)-2-methoxy-2-(4-(5-methyl-3-(1H-pyrrolo[3,2-b]pyridin-3-yl)-1H-pyrazol-1-yl)-6-morpholinopyrimidin-2-yl)ethan-1-ol] | –
20 | 100 to 5000 | CO[C@@H](CO)c1nc(N2CCOCC2)cc(-n2nc(-c3c[nH]c4ccncc34)cc2C)n1 [Compound 289, (R)-2-methoxy-2-(4-(5-methyl-3-(1H-pyrrolo[3,2-c]pyridin-3-yl)-1H-pyrazol-1-yl)-6-morpholinopyrimidin-2-yl)ethan-1-ol] | –
21 | 100 to 5000 | CO[C@H](CO)c1nc(N2CCOCC2)cc(-n2ccc(-c3cccc4c3OCO4)n2)n1 [Compound 266, (S)-2-(4-(3-(benzo[d][1,3]dioxol-4-yl)-1H-pyrazol-1-yl)-6-morpholinopyrimidin-2-yl)-2-methoxyethan-1-ol] | –
22 | 10 to 100 | CO[C@@H](CO)c1nc(N2CCOCC2)cc(-n2ccc(-c3cccc4c3OCO4)n2)n1 [Compound 267, (R)-2-(4-(3-(benzo[d][1,3]dioxol-4-yl)-1H-pyrazol-1-yl)-6-morpholinopyrimidin-2-yl)-2-methoxyethan-1-ol] | –
23 | 100 to 5000 | CO[C@H](CO)c1nc(N2CCOCC2)cc(-n2ccc(-c3cccc(C)c3C)n2)n1 [Compound 264, (S)-2-(4-(3-(2,3-dimethylphenyl)-1H-pyrazol-1-yl)-6-morpholinopyrimidin-2-yl)-2-methoxyethan-1-ol] | –
24 | 10 to 100 | CO[C@@H](CO)c1nc(N2CCOCC2)cc(-n2nc(-c3c[nH]c4ncccc34)cc2C)n1 [Compound 285, (R)-2-methoxy-2-(4-(5-methyl-3-(1H-pyrrolo[2,3-b]pyridin-3-yl)-1H-pyrazol-1-yl)-6-morpholinopyrimidin-2-yl)ethan-1-ol] | –
25 | 100 to 5000 | CN(C)C(=O)c1cc(-c2ccccc2)nn1-c1cc(N2CCOCC2)nc(OCCc2cnn(C)c2)n1 [Compound 222, N,N-dimethyl-1-(2-(2-(1-methyl-1H-pyrazol-4-yl)ethoxy)-6-morpholinopyrimidin-4-yl)-3-phenyl-1H-pyrazole-5-carboxamide] | –
26 | 100 to 5000 | CO[C@@H](CO)c1nc(N2CCOCC2)cc(-n2ccc(-c3cnc4ccccn34)n2)n1 [Compound 283, (R)-2-(4-(3-(imidazo[1,2-a]pyridin-3-yl)-1H-pyrazol-1-yl)-6-morpholinopyrimidin-2-yl)-2-methoxyethan-1-ol] | –
27 | 100 to 5000 | CO[C@@H](CO)c1nc(N2CCOCC2)cc(-n2nc(-c3cnc4ccccn34)cc2C)n1 [Compound 281, (R)-2-(4-(3-(imidazo[1,2-a]pyridin-3-yl)-5-methyl-1H-pyrazol-1-yl)-6-morpholinopyrimidin-2-yl)-2-methoxyethan-1-ol] | –
